The record followed here is patent USRE49873E1, “APP specific bace inhibitors (ASBIs) and uses thereof” (BUCK INSTITUTE FOR RESEARCH ON AGING, priority 2012, dated 2024).

Assay [1] relates to β-CTF production in CHO cells stably over-expressing human APP. As to the kind of experiment: β-CTF western blot in CHO cells over-expressing human APP. The settings on record: 10 μM, 24 hr, western blot of cell lysates. Type of assay: cell-based, Chinese Hamster. The method, then:
Chinese Hamster Ovary (CHO) cells stably over-expressing human APP were treated with 10 μM Galangin or DMSO for 24 hr, then the cell lysates and conditioned media were collected. The levels of full length APP and β-CTF in the cell lysates and the levels of sAPPα in the conditioned media were detected by western blot. […] BACE1-dependent cleavage of SEAP-NRG1-β1 was evaluated by SEAP assays with supernatants of control human embryonic kidney 293 (HEK293) cells (SEAP-NRG1-β1) or HEK293 cells co-expressing BACE1 (SEAP-NRG1-β1+BACE1), treated with DMSO or Galangin (10 μM). An increase in shedding of the SEAP-NRG1-b1 fusion protein was measured upon BACE1 co-expression. Shedding in co-expressing cells was not suppressed by Galangin. Error bars indicate SEM. (N.S., p>0.05; n=4, student t test).
The Chinese Hamster Ovary (CHO) cell line over-expressing human AβPP (7 W) was kindly provided by Dr. Edward Koo. Plasmid constructs were transiently transfected into HEK293T or 7 W cells with Lipofectamine 2000 (Invitrogen). Western Blot analysis was performed as previously described (Swistowski et al. (2009) J. Neurosci., 29: 15703-15712). Briefly, 48 hr after transfection, cells were harvested and lysed in NP-40 Cell Lysis Buffer (50 mM TrisHCl, pH 8.0, 150 mM NaCl and 1% NP-40). Cell lysates were mixed with 1×LDS loading buffer (Invitrogen) and 50 mM DTT, and boiled at 100° C. for 10 min. […]
In general terms: In western blotting, separated proteins are transferred to a membrane and probed.

In assay [2] the test system is APLP2-Gal4 transactivation in HEK293T cells. As to the kind of experiment: APLP2-Gal4/Mint3/TAZ transactivation assay. The settings on record: Mint3 and TAZ present, galangin at 10 μM. It is filed as cell-based. The source says:
FIGS. 7A and 7B illustrate inhibition of APP-Gal4 and APLP2-Gal4 transactivation by galangin. […] This transactivation was inhibited by Galangin and BACE inhibitor IV. FIG. 7B: Potent transactivation of transcription was also achieved with APLP2 fused to the Gal4 DNA binding domain when both Mint3 and TAZ were present. This transactivation was inhibited by Galangin and BACE inhibitor IV. […] The normalized luciferase activity is expressed as a percentage of the DMSO treated control (FIGS. 7A, 7B). Error bars indicate SEM. (*, p<0.05; **, p<0.01; ***, p<0.001; n=3, student t test).
This assay system is described by Orcholski et al. (2011) J. Alzheimers Dis., 23(4):689-699. Transactivation is achieved upon transfection with Mint3 and Taz. The ASBI was expected to inhibit only the transactivation of APP-Gal4, not that of APLP2-Gal4. For these experiments cells were co-transfected with a Gal4-luciferase reporter plasmid (to measure transactivation), a beta-galactosidase plasmid (to normalize for transfection efficiency), and the test plasmids identified. The normalized luciferase activity was expressed as fold induction over transcription by APP-Gal4 alone (FIG. 7A), or as fold induction over APLP2-Gal4 alone (FIG. 7B).
HEK293T cells were co-transfected with five plasmids: (1) pG5E1B-luc, 0.3 μg; (2) pCMV-LacZ, 0.1 μg; (3) pMst-APP (APP-Gal4) or pcDNA3.1-APLP2-Gal4, 0.3 μg; (4) pCMV5-Mint3, 1.0 μg; (5) pEF-N-FLAG-TAZ, 1.0 μg. Cells were harvested 48 hr after transfection in 0.2 ml per well Cell Culture Lysis Buffer (Promega), and their luciferase and β-galactosidase activities were determined with the Promega luciferase assay kit and the Promega β-galactosidase assay kit, respectively. The luciferase activity was standardized by the β-galactosidase activity to control for transfection efficiency and general effects on transcription. Transfections were performed at 80-90% cofluency in six-well plates using Lipofectamine 2000 (Invitrogen).

For assay [3], the system named is Aβ1-40 and Aβ1-42 levels in hippocampal/entorhinal cortical tissue. Kind of assay: Pilot efficacy testing in PDAPP (J20) AD model mice, Aβ ELISA. The settings on record: 40 mpk sc daily for 14 days, hippocampus and cortex. Type of assay: in vivo. As to the method:
Galangin and progalangin (PG-1) were dissolved in 10% solutol/15% DMSO/75% polyethylene glycol (PEG). Stock solutions were prepared at 10 mg/ml for each compound and 100 ul was injected subcutaneously daily for 14 days at a dose of 40 mkd. There were 5 PDAPP AD model J20 mice in both the galangin and progalangin groups, and 9 vehicle-only treated J20 controls. Mice were anesthetized, blood collected for plasma, and brain tissue collected as described above 2 hours after injection on the last day of treatment. The right hemibrain was further microdissected to isolate hippocampus and entorhinal cortex and this combined tissue was used for biochemical analysis. The remaining tissue and plasma was sent to IAS for compound level analysis.
Aβ1-42 and Aβ1-40 levels were determined using the hippocampal/entorhinal cortical tissue. Briefly, frozen tissue samples were weighed, and a 20% w/v sonicate prepared in 5M guandine-HCl/50 mM Tris, pH8. Sonication was performed with sample tubes in ice water, 4×5 seconds at 60 Hz, then 3×5 seconds at 80 Hz. Samples were then rotated at room temperature for 3 hours and frozen at −20° C. until assay. Invitrogen ELISA kits were used for Aβ1-40 and Aβ1-42 according to the manufacturer's instructions.

Entries after “also recorded” stand apart in the source; their conditions may differ.

Regarding `O=c1c(O)c(-c2ccccc2)oc2cc(O)cc(O)c12` [Galangin], in assay [1], the β-CTF production entry is on record as “inhibits β-CTF production”. Moreover, the APLP2-Gal4 transactivation entry was “inhibited” in assay [2]; “inhibit; also recorded: inhibits APP-Gal4 and APLP2-Gal4” in assay [2] (listed as galangin). Further, the “Aβ1-42 (Aβ42) levels in brain” value in assay [3] is “unchanged”. For the same molecule, the “Aβ1-40 (Aβ40) levels in brain” value in assay [3] (40 mg/kg) is “some reduction of Aβ40; also recorded: slightly lower”.
